# Results published in patent US20250257051A1, “SUBSTITUTED PYRIMIDINE COMPOUNDS AS TYK2 INHIBITORS” (1910 Genetics Inc., priority 2022, published 2025).
# Several values for one entry are separate records, joined by “and”; a condition that tells them apart may be missing. Identical values can stand only once. Counter-ions that a name gives are not always drawn.
# Target: human TYK2 (JH2domain-pseudokinase) (Homo sapiens (Human), UniProt P29597)
# Experiment: TYK2 JH2 Domain Binding Assay (KINOMEscan competition binding)
# Settings: KINOMEscan; 11-point 3-fold dilution, top concentration 30,000 nM; Kd measurements in duplicate; read-out: TYK JH2 (Kd)
# Method: Binding constants for compounds disclosed herein may be determined by the KINOMEscan® assay developed by DiscoveRx. KINOMEscan® is based on a competition binding assay that quantitatively measures the ability of a compound to compete with an immobilized, active-site directed ligand. The assay is performed by combining three components: DNA-tagged kinase; immobilized ligand; and a test compound. The ability of the test compound to compete with the immobilized ligand is measure via quantitative PCR of the DNA tag.
# Binding constants for compounds disclosed herein against the JH2 domain are determined by the following protocol for a KINOMEscan® assay (DiscoveRx). A fusion protein of a partial length construct of human TYK2 (JH2domain-pseudokinase) (amino acids G556 to D888 based on reference sequence NP 003322.3) and the DNA binding domain of NFkB is expressed in transiently transfected HEK293 cells. From these HEK 293 cells, extracts are prepared in M-PER extraction buffer (Pierce) in the presence of Protease Inhibitor Cocktail Complete (Roche) and Phosphatase Inhibitor Cocktail Set II (Merck) per manufacturers' instructions. The TYK2 (JH2domain-pseudokinase) fusion protein is labeled with a chimeric double-stranded DNA tag containing the NFkB binding site (5′-GGGAATTCCC-3′) fused to an amplicon for qPCR readout, which is added directly to the expression extract (the final concentration of DNA-tag in the binding reaction is 0.1 nM).
# Streptavidin-coated magnetic beads (Dynal M280) are treated with a biotinylated small molecule ligand for 30 minutes at room temperature to generate affinity resins for the binding assays. The liganded beads are blocked with excess biotin and washed with blocking buffer (SeaBlock (Pierce), 1% BSA, 0.05% Tween 20, 1 mM DTT) to remove unbound ligand and to reduce nonspecific binding.
# Extracts are used directly in binding assays without any enzyme purification steps at a >10,000-fold overall stock dilution (final DNA tagged enzyme concentration<0.1 nM). Extracts are loaded with DNA-tag and diluted into the binding reaction in a two-step process. First extracts are diluted 1:100 in 1× binding buffer (PBS/0.05% Tween 20/10 mM DTT/0.1% BSA/[…] sonicated salmon sperm DNA) containing 10 nM DNA-tag. This dilution is allowed to equilibrate at room temperature for 15 minutes and then subsequently diluted 1:100 in 1× binding buffer. Test compounds are prepared as 111× stocks in 100% DMSO. Kds are determined using an 11-point 3-fold compound dilution series with three DMSO control points. All compounds for Kd measurements are distributed by acoustic transfer (non-contact dispensing) in 100% DMSO. The compounds are then diluted directly into the assays such that the final concentration of DMSO is 0.9%. All reactions performed in polypropylene 384-well plates. Each is a final volume of 0.02 mL. Assays are incubated with shaking for 1 hour at room temperature. Then the beads are pelleted and washed with wash buffer (lx PBS, 0.05% Tween 20) to remove displaced kinase and test compound. The washed beads are re-suspended in elution buffer (lx PBS, 0.05% Tween 20, 0.5 μM non-biotinylated affinity ligand) and incubated at room temperature with shaking for 30 minutes. The kinase concentration in the eluates is measured by qPCR. qPCR reactions are assembled by adding 2.5 μL of kinase eluate to 7.5 μL of qPCR master mix containing 0.15 μM amplicon primers and 0.15 μM amplicon probe. The qPCR protocol consists of a 10-minute hot start at 95° C., followed by 35 cycles of 95° C. for 15 seconds, 60° C. for 1 minute.
# Test compounds are prepared as 111× stocks in 100% DMSO. Kds are determined using an 11-point 3-fold compound dilution series with three DMSO control points. All compounds for Kd measurements are distributed by acoustic transfer (non-contact dispensing) in 100% DMSO. The compounds are then diluted directly into the assays such that the final concentration of DMSO is 0.9%. […]
# Chain of human TYK2 (JH2domain-pseudokinase) (P29597 556-888): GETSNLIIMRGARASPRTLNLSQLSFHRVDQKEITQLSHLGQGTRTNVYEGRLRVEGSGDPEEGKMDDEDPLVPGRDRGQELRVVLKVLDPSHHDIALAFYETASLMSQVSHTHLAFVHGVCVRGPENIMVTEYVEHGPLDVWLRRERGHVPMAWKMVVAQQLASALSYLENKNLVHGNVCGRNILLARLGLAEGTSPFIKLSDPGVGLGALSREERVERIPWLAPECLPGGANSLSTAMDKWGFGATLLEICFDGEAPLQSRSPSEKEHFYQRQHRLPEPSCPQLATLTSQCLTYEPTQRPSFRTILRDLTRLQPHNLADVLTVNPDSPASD
row,Kd [nM],SMILES
1,180,"CC1CN(C(=O)OC(C)(C)C)CCN1c1ncc(C(N)=O)c(Nc2ccccc2S(C)(=O)=O)n1 (racemic) [Compound 55, Tert-Butyl 4-(5-carbamoyl-4-((2-(methylsulfonyl)phenyl)amino)pyrimidin-2-yl)-3-methylpiperazine-1-carboxylate]"
2,120,"CC(=O)N1CCN(c2ncc(C(N)=O)c(Nc3ccccc3S(C)(=O)=O)n2)C(C)C1 (racemic) [Compound 62, 2-(4-acetyl-2-methylpiperazin-1-yl)-4-((2-(methylsulfonyl)phenyl)amino)pyrimidine-5-carboxamide]"
3,38,"CNC(=O)[C@@H]1CCN(c2ncc(C(N)=O)c(Nc3ccc(C4CC4)nc3)n2)C1 [Compound 4, (R)-4-((6-cyclopropylpyridin-3-yl)amino)-2-(3-(methylcarbamoyl)pyrrolidin-1-yl)pyrimidine-5-carboxamide]"
4,3.9,"CNC(=O)c1cnc(N2CC[C@H](C(=O)NC)C2)nc1Nc1cccc(-c2ncc(F)cn2)c1OC [Compound 7, (S)-4-((3-(5-fluoropyrimidin-2-yl)-2-methoxyphenyl)amino)-N-methyl-2-(3-(methylcarbamoyl)pyrrolidin-1-yl)pyrimidine-5-carboxamide]"
5,360,"CNC(=O)c1cnc(N2CCCC2)nc1Nc1ccc(C(=O)N2CCOCC2)cc1 [Compound 8, N-methyl-4-((4-(morpholine-4-carbonyl)phenyl)amino)-2-(pyrrolidin-1-yl)pyrimidine-5-carboxamide]"
6,240,"CNC(=O)c1cnc(N2CC[C@@H](C(=O)NC)C2)nc1Nc1ccc(C2CC2)nc1 [Compound 9, (R)-4-((6-cyclopropylpyridin-3-yl)amino)-N-methyl-2-(3-(methylcarbamoyl)pyrrolidin-1-yl)pyrimidine-5-carboxamide]"
7,180,"CC(=O)N1CCN(c2ncc(C(N)=O)c(Nc3ccc(C4CC4)nc3)n2)C(C)C1 (stereo not drawn) [Compound 11, 2-(4-acetyl-2-methylpiperazin-1-yl)-4-((6-cyclopropylpyridin-3-yl)amino)pyrimidine-5-carboxamide]"
8,800,"CC1CNCCN1c1ncc(C(N)=O)c(Nc2ccc(C3CC3)nc2)n1 (stereo not drawn) [Compound 12, 4-((6-cyclopropylpyridin-3-yl)amino)-2-(2-methylpiperazin-1-yl)pyrimidine-5-carboxamide]"
9,21,"CCOC(=O)C1CCN(c2ncc(C(=O)NC)c(Nc3ccccc3S(C)(=O)=O)n2)CC1 [Compound 17, Ethyl 1-(5-(methylcarbamoyl)-4-((2-(methylsulfonyl)phenyl)amino)pyrimidin-2-yl)piperidine-4-carboxylate]"
10,440,"CNC(=O)c1cnc(N2CCN(C(=O)OC(C)(C)C)CC2C)nc1Nc1ccccc1S(C)(=O)=O (stereo not drawn) [Compound 18, Tert-Butyl 3-methyl-4-(5-(methylcarbamoyl)-4-((2-(methylsulfonyl)phenyl)amino)pyrimidin-2-yl)piperazine-1-carboxylate]"
11,14000,"CNC(=O)c1cnc(N2CCCN(C(C)=O)CC2)nc1Nc1ccc(C2CC2)nc1 [Compound 21, 2-(4-acetyl-1,4-diazepan-1-yl)-4-((6-cyclopropylpyridin-3-yl)amino)-N-methylpyrimidine-5-carboxamide]"
12,11000,"CNC(=O)c1cnc(N2CCCNCC2)nc1Nc1ccc(C2CC2)nc1 [Compound 22, 4-((6-cyclopropylpyridin-3-yl)amino)-2-(1,4-diazepan-1-yl)-N-methylpyrimidine-5-carboxamide Hydrochloride]"
13,1600,"CNC(=O)c1cnc(N2CCN(C(C)=O)CC2C)nc1Nc1ccccc1OC (stereo not drawn) [Compound 23, 2-(4-acetyl-2-methylpiperazin-1-yl)-4-((2-methoxyphenyl)amino)-N-methylpyrimidine-5-carboxamide]"
14,4900,"CNC(=O)c1cnc(N2CCCN(C(C)=O)CC2)nc1Nc1ccccc1OC [Compound 24, 2-(4-acetyl-1,4-diazepan-1-yl)-4-((2-methoxyphenyl)amino)-N-methylpyrimidine-5-carboxamide]"
15,180,"CNC(=O)c1cnc(N2CCNCC2C)nc1Nc1cccc(-c2ncc(F)cn2)c1OC (stereo not drawn) [Compound 25, 4-((3-(5-fluoropyrimidin-2-yl)-2-methoxyphenyl)amino)-N-methyl-2-(2-methylpiperazin-1-yl)pyrimidine-5-carboxamide Hydrochloride]"

# Further lines, the compound ahead of its results:
row,SMILES,Kd [nM]
1,"CC1CNCCN1c1ncc(C(N)=O)c(Nc2ccccc2S(C)(=O)=O)n1 (racemic) [Compound 63, 2-(2-methylpiperazin-1-yl)-4-((2-(methylsulfonyl)phenyl)amino)pyrimidine-5-carboxamide hydrochloride]",1400
2,"CNC(=O)c1cnc(N2CCC(C(=O)NC)C2)nc1Nc1ccc(C2CC2)nc1 (stereo not drawn) [Compound 1, 4-((6-cyclopropylpyridin-3-yl)amino)-N-methyl-2-(3-(methylcarbamoyl)pyrrolidin-1-yl)pyrimidine-5-carboxamide]",170
3,"NC(=O)c1cnc(N2CCCC2)nc1Nc1ccc(C2CC2)nc1 [Compound 2, 4-((6-cyclopropylpyridin-3-yl)amino)-2-(pyrrolidin-1-yl)pyrimidine-5-carboxamide]",12
4,"CNC(=O)[C@H]1CCN(c2ncc(C(N)=O)c(Nc3ccc(C4CC4)nc3)n2)C1 [Compound 3, (S)-4-((6-cyclopropylpyridin-3-yl)amino)-2-(3-(methylcarbamoyl)pyrrolidin-1-yl)pyrimidine-5-carboxamide]",54
5,"CNC(=O)c1cnc(N2CC[C@@H](C(=O)NC)C2)nc1Nc1cccc(-c2ncc(F)cn2)c1OC [Compound 5, (R)-4-((3-(5-fluoropyrimidin-2-yl)-2-methoxyphenyl)amino)-N-methyl-2-(3-(methylcarbamoyl)pyrrolidin-1-yl)pyrimidine-5-carboxamide]",0.69
6,"CNC(=O)c1cnc(N2CC[C@H](C(=O)NC)C2)nc1Nc1ccc(C2CC2)nc1 [Compound 6, (S)-4-((6-cyclopropylpyridin-3-yl)amino)-N-methyl-2-(3-(methylcarbamoyl)pyrrolidin-1-yl)pyrimidine-5-carboxamide]",430
7,"CC1CN(C(=O)OC(C)(C)C)CCN1c1ncc(C(N)=O)c(Nc2ccc(C3CC3)nc2)n1 (stereo not drawn) [Compound 13, Tert-Butyl 4-(S-carbamoyl-4-((6-cyclopropylpyridin-3-yl)amino)pyrimidin-2-yl)-3-methylpiperazine-1-carboxylate]",1000
8,"CNC(=O)c1cnc(N2CCN(C(=O)OC(C)(C)C)CC2C)nc1Nc1ccc(C2CC2)nc1 (stereo not drawn) [Compound 15, Tert-Butyl 4-(4-((6-cyclopropylpyridin-3-yl)amino)-5-(methylcarbamoyl)pyrimidin-2-yl)-3-methylpiperazine-1-carboxylate]",42000
9,"CCOC(=O)C1CCN(c2ncc(C(N)=O)c(Nc3ccccc3S(C)(=O)=O)n2)CC1 [Compound 16, Ethyl 1-(5-carbamoyl-4-((2-(methylsulfonyl)phenyl)amino)pyrimidin-2-yl)piperidine-4-carboxylate]",2.6
10,"CNC(=O)c1cnc(N2CCC(C(=O)O)CC2)nc1Nc1ccc(C2CC2)nc1 [Compound 19, 1-(4-((6-cyclopropylpyridin-3-yl)amino)-5-(methylcarbamoyl)pyrimidin-2-yl)piperidine-4-carboxylic acid]",8200
11,"CCOC(=O)C1CCN(c2ncc(C(=O)NC)c(Nc3ccc(C4CC4)nc3)n2)CC1 [Compound 20, Ethyl 1-(4-((6-cyclopropylpyridin-3-yl)amino)-5-(methylcarbamoyl)pyrimidin-2-yl)piperidine-4-carboxylate]",2500

# Same assay, conditions: footnote a: the two measurements averaged for Cmpd. No. 5; read-out: TYK JH2 (Kd, nM), individual measurements
row,Kd,SMILES
1,0.45 nM and 0.93 nM,"CNC(=O)c1cnc(N2CC[C@@H](C(=O)NC)C2)nc1Nc1cccc(-c2ncc(F)cn2)c1OC [Compound 5, (R)-4-((3-(5-fluoropyrimidin-2-yl)-2-methoxyphenyl)amino)-N-methyl-2-(3-(methylcarbamoyl)pyrrolidin-1-yl)pyrimidine-5-carboxamide]"
